Values of other authors as cited in patent US20090117076A1, “Methods For Treating Tumor Cells” (priority 2007, published 2009).
Where a name gives a salt, the structure may show the parent alone. Read-outs that look alike come from different tables or passages of the source.

Tests used:
GIST = details: for Median time to progression, historical value: single agent imatinib
[1] = primates

Molecule | Overall response rate of tumor necrosis/apoptosis (GIST; human, in vivo) | Median time to progression, historical value (GIST; subgroup with KIT exon 11 mutation) | Median time to progression, historical value (GIST; subgroup without KIT exon 11 mutation) | Abortifacient effect [1]
Cc1ccc(NC(=O)c2ccc(CN3CCN(C)CC3)cc2)cc1Nc1nccc(-c2cccnc2)n1 [imatinib, imatinib mesylate] | 69% | 687 days | 200 days | –
interferon α-2b | – | – | – | abortifacient
